From ChEMBL document CHEMBL5120872, “Synthesis and biological evaluation of novel 2-azido muramyl dipeptide as NOD2 agonistic adjuvants” (Bioorg Med Chem, 2022)
Active and inactive are the calls of the source. No cut-off for these calls is given here.

Key:
[1] = target: Nucleotide-binding oligomerization domain-containing protein 2 (Homo sapiens) (UniProt Q9HC29); assay: Agonist activity at NOD2 in HEK-Blue hNOD2 cells assessed as increase in SEAP activity at 20 ug incubated for 24 hrs by Quanti-blue assay; format: cell-based; conditions: filed as agonist, dose 20.0 µg
Chain of Nucleotide-binding oligomerization domain-containing protein 2 (Homo sapiens) (Q9HC29 whole entry, the tested form may be a part): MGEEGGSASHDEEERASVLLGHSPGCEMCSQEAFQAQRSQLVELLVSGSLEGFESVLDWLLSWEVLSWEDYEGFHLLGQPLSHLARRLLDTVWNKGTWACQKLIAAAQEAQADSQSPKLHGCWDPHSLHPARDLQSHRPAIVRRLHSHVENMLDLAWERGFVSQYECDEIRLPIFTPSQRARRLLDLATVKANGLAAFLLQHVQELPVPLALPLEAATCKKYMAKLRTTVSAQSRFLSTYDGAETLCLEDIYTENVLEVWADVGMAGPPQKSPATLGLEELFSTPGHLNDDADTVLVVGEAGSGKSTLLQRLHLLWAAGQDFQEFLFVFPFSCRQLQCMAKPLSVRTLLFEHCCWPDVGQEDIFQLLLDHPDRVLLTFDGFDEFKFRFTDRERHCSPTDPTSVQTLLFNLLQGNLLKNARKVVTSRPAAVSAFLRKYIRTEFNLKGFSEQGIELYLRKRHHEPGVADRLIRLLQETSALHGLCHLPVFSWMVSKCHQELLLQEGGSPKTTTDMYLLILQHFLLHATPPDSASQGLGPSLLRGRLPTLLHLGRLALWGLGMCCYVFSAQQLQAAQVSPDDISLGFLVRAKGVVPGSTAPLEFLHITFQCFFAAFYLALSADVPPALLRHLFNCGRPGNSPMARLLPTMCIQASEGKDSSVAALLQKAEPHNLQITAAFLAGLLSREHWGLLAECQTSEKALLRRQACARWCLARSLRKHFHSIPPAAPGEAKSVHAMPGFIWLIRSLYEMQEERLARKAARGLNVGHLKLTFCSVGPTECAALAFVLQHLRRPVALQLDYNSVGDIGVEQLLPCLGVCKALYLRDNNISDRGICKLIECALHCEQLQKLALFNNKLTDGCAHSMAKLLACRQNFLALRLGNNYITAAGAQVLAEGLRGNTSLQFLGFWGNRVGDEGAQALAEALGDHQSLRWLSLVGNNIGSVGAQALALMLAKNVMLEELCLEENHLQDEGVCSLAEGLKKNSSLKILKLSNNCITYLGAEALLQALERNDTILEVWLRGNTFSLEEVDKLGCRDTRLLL

Peritoneal macrophage [2] = assay: Immunostimulatory activity in BALB/c mouse peritoneal macrophages assessed as increase in TNF-aplha production at 20 ug incubated for 48 hrs by sandwich ELISA method; format: functional, cell-based; conditions: dose 20.0 µg
Peritoneal macrophage [3] = assay: Cytotoxicity against BALB/c mouse peritoneal macrophages assessed as reduction in cell viability at 20 ug incubated for 48 hrs by MTT assay; format: toxicity, cell-based; conditions: dose 20 µg
[4] = Induction of dengue virus antigen-induced immunogenicity in BALB/c mouse assessed as fold change in IgG production treated at 20 ug and booster dosed on 14th day measured after 28 days by ELISA method; format: functional; conditions: dose 20 µg; time 28 day
[5] = Induction of dengue virus antigen-induced immunogenicity in BALB/c mouse assessed as fold change in IgG production treated at 10 ug and booster dosed on 14th day measured after 28 days by ELISA method; format: functional; conditions: dose 10 µg; time 28 day
Splenocyte [6] = assay: Induction of dengue virus antigen-induced immunogenicity in BALB/c mouse assessed as increase in CD8+ production in splenocyte treated at 20 ug and booster dosed on 14th day measured after 28 days by ELISA method; format: functional, organism-based; conditions: dose 20.0 µg, time 28.0 day
Splenocyte [7] = assay: Induction of dengue virus antigen-induced immunogenicity in BALB/c mouse assessed as increase in CD4+ production in Splenocyte treated at 20 ug and booster dosed on 14th day measured after 28 days by ELISA method; format: functional, organism-based; conditions: dose 20.0 µg, time 28.0 day
Mus musculus [8] = assay: Induction of dengue virus antigen-induced immunogenicity in BALB/c mouse assessed as increase in IL-4 level booster dosed on 14th day and measured on day 28 after 48 hrs restimulation with antigen by ELISA method; format: functional, organism-based; conditions: dose 10-30 µg, time 28.0 day, DDE = dose-dependent effect
Mus musculus [9] = assay: Induction of dengue virus antigen-induced immunogenicity in BALB/c mouse assessed as […] associated IgG2a production in sera treated at 10 to 30 ug and booster dosed on 14th day measured after 28 days by ELISA method; format: functional, organism-based; conditions: dose 10-30 µg, time 28.0 day
Mus musculus [10] = assay: Induction of dengue virus antigen-induced immunogenicity in BALB/c mouse assessed as increase in IL-1beta level treated at 10 to 20 ug and booster dosed on 14th day and measured on day 28 after 48 hrs restimulation with antigen by ELISA method; format: functional, organism-based; conditions: dose 10-20 µg, time 28.0 day
Splenocyte [11] = assay: Induction of dengue virus antigen-induced immunogenicity in BALB/c mouse assessed as increase in CD4+ production in Splenocyte treated at 1 to 30 ug and booster dosed on 14th day measured after 28 days by ELISA method; format: functional, organism-based; conditions: dose 1-30 µg, time 28.0 day
Splenocyte [12] = assay: Induction of LPS-stimulated mouse splenocyte proliferation assessed as increase in B cell population incubated for 48 hrs by MTT assay; format: functional, cell-based; conditions: dose 10-20 µg, DDE = dose-dependent effect
Splenocyte [13] = assay: Induction of Con A-stimulated mouse splenocyte proliferation assessed as increase in T cell population incubated for 48 hrs by MTT assay; format: functional, cell-based; conditions: dose 10-20 µg, DDE = dose-dependent effect
Mus musculus [14] = assay: Induction of dengue virus antigen-induced immunogenicity in BALB/c mouse assessed as decrease in IFNgamma level booster dosed on 14th day and measured on day 28 after 48 hrs restimulation with antigen by ELISA method; format: functional, organism-based; conditions: dose 10-30 µM, time 28.0 day, DDE = dose-dependent effect
Splenocyte [15] = assay: Induction of dengue virus antigen-induced immunogenicity in BALB/c mouse assessed as increase in CD8+ production in Splenocyte treated at 1 to 30 ug and booster dosed on 14 th day measured after 28 days by ELISA method; format: functional, organism-based; conditions: dose 1-30 µg, time 28.0 day
Mus musculus [16] = assay: Induction of dengue virus antigen-induced immunogenicity in BALB/c mouse assessed as increase in IL-2 level booster dosed on 14th day and measured on day 28 after 48 hrs restimulation with antigen by ELISA method; format: functional, organism-based; conditions: dose 10-30 µg, time 28.0 day, DDE = dose-dependent effect

| Activity [1] | SMILES | Activity (Peritoneal macrophage [2]) | Activity (Peritoneal macrophage [3]) | fold change (FC) [4] | fold change (FC) [5] | also measured |
| --- | --- | --- | --- | --- | --- | --- |
| Active | CCCCCCCCCCCCCCOC(=O)CC[C@@H](NC(=O)[C@H](C)NC(=O)[C@@H](C)O[C@H]1[C@H](O)[C@@H](CO)O[C@H](OCc2ccccc2)[C@@H]1N=[N+]=[N-])C(N)=O | Active | Non-Toxic | – | – | – |
| Active | CC(=O)N[C@H]1C(O)O[C@H](CO)[C@@H](O)[C@@H]1O[C@H](C)C(=O)N[C@@H](C)C(=O)N[C@H](CCC(=O)O)C(N)=O (stereo partly drawn) [MURAMYL DIPEPTIDE] | Active | Non-Toxic | 5 | 5 | – |
| Active | C[C@H](NC(=O)[C@@H](C)O[C@H]1[C@H](O)[C@@H](CO)O[C@H](OCc2ccccc2)[C@@H]1N=[N+]=[N-])C(=O)N[C@H](CCC(=O)OCc1ccccc1)C(N)=O | Active | Non-Toxic | 10 | 8 | Activity (Splenocyte [6]): Active; Activity (Splenocyte [7]): Active; Activity (Mus musculus [8]): Dde; Activity (Mus musculus [9]): Active; Activity (Mus musculus [10]): Active; Activity (Splenocyte [11]): Active; Activity (Splenocyte [12]): Dde; Activity (Splenocyte [13]): Dde; Activity (Mus musculus [14]): Dde; Activity (Splenocyte [15]): Active; Activity (Mus musculus [16]): Dde |
| Active | C[C@H](NC(=O)[C@@H](C)O[C@H]1[C@H](O)[C@@H](CO)O[C@H](OCc2ccccc2)[C@@H]1N=[N+]=[N-])C(=O)N[C@H](CCC(=O)O)C(N)=O | Active | Non-Toxic | – | – | – |
| Active | CCCCCCCCOC(=O)CC[C@@H](NC(=O)[C@H](C)NC(=O)[C@@H](C)O[C@H]1[C@H](O)[C@@H](CO)O[C@H](OCc2ccccc2)[C@@H]1N=[N+]=[N-])C(N)=O | Active | Non-Toxic | – | – | – |
| Active | C[C@H](NC(=O)[C@@H](C)O[C@@H]1[C@@H](N=[N+]=[N-])[C@@H](OCc2ccccc2)O[C@@H]2CO[C@@H](c3ccccc3)O[C@@H]12)C(=O)N[C@H](CCC(=O)OCc1ccccc1)C(N)=O | Active | Non-Toxic | – | – | – |
